In publication PMC12516812 (RSC Advances, 2025):

System: MCF-7, U87, PANC-1 and A549
Experiment: MTT cytotoxicity assay, average over all tested cancer cell lines
Format: cell-based
Conditions: Homo sapiens, 72 h, read-out: average IC50 against all tested cell lines

Compound `CC1=CC(=O)C(C(C)C)=CC1=O` [TQ, Thymoquinone] has an IC50 of about 32 µM.
